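Method: 48-hour compound exposure of cells in 96-well plates, five concentrations, linear interpolation of endpoints. Abbreviation: GI50, concentration required for 50% inhibition of growth. TGI: concentration producing complete growth inhibition.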
Tests used:
Test in all cases: inhibition of tumour cell growth, NCI panel, 48 h
DU-145 prostate = system: DU-145 prostate
HCC-2998 colon = system: HCC-2998 colon
SF-268 CNS = system: SF-268 CNS
OVCAR-5 ovarian = system: OVCAR-5 ovarian
CCRF-CEM leukemia = system: CCRF-CEM leukemia
PC-3 prostate = system: PC-3 prostate
NCI-H460 lung = system: NCI-H460 lung
T-47D breast = system: T-47D breast
OVCAR-4 ovarian = system: OVCAR-4 ovarian
SN12C renal = system: SN12C renal

Row | SMILES | GI50 (DU-145 prostate) [µM] | TGI (DU-145 prostate) [µM] | GI50 (HCC-2998 colon) [µM] | TGI (HCC-2998 colon) [µM] | GI50 (SF-268 CNS) [µM] | TGI (SF-268 CNS) [µM] | GI50 (OVCAR-5 ovarian) [µM] | TGI (OVCAR-5 ovarian) [µM] | GI50 (CCRF-CEM leukemia) [µM] | TGI (CCRF-CEM leukemia) [µM] | GI50 (PC-3 prostate) [µM] | TGI (PC-3 prostate) [µM] | GI50 (NCI-H460 lung) [µM] | TGI (NCI-H460 lung) [µM] | GI50 (T-47D breast) [µM] | TGI (T-47D breast) [µM] | GI50 (OVCAR-4 ovarian) [µM] | TGI (OVCAR-4 ovarian) [µM] | GI50 (SN12C renal) [µM] | TGI (SN12C renal) [µM]
1 | O=C(CNC(=O)c1cccc2ccccc12)Nc1ccccc1Oc1cccc(O)c1 | 9.47 | > 25 | > 25 | > 25 | 20.9 | > 25 | > 25 | > 25 | 4.17 | > 25 | 7.13 | > 25 | 5.82 | > 25 | 9.84 | > 25 | > 25 | > 25 | > 25 | > 25
2 | COC(=O)Nc1ccc2ccc3c(NC(=O)OC)ccc4ccc1c2c43 (tested in a mixture with another compound) | 14.8 | > 50 | 9.99 | 37.9 | 14 | > 50 | 13.9 | > 50 | 6.04 | > 50 | 6.89 | 26 | 4.79 | > 50 | 9.23 | 35.6 | 15.7 | > 50 | 18.9 | > 50
3 | CCCCCC(=O)N1c2ccccc2NC2=C(C(=O)CC(c3ccc(OC)c(OC)c3)C2)C1c1ccc(C(F)(F)F)cc1 (stereo not given) | > 100 | > 100 | > 100 | > 100 | > 100 | > 100 | > 100 | > 100 | > 100 | > 100 | 6.25 | > 100 | > 100 | > 100 | > 100 | > 100 | 15.8 | > 100 | > 100 | > 100
4 | N#Cc1c(NC(=O)c2cccs2)[n+]([O-])c2ccccc2[n+]1[O-] | > 100 | > 100 | > 100 | > 100 | > 100 | > 100 | > 100 | > 100 | > 100 | > 100 | 64.9 | > 100 | > 100 | > 100 | 89.3 | > 100 | > 100 | > 100 | > 100 | > 100
5 | O=C(Nc1ccccc1Cl)c1cnc2ccc(C3CCNCC3)cn12 | 6.62 | > 100 | > 100 | > 100 | 9.04 | > 100 | 1.9 | > 100 | > 100 | > 100 | 14.3 | > 100 | > 87.3 | > 100 | 5.53 | > 100 | > 75.1 | > 100 | 3.71 | > 100
6 | CC1C(=O)N=C2C(=CN(Cc3ccccc3)c3ccccc32)C(=O)N1C (stereo not given) | – | > 100 | – | > 100 | – | > 100 | – | > 100 | – | > 100 | – | > 100 | – | > 100 | – | > 100 | – | > 100 | – | > 100
7 | C[C@]12CC[C@H]3[C@@H](CCC4=CC(=O)CC[C@@H]43)[C@@H]1CC[C@@H]2OC1(O)C(=O)c2ccccc2C1=O | – | 66.7 | – | > 100 | – | > 100 | – | > 100 | – | > 100 | – | > 100 | – | > 100 | – | > 100 | – | > 100 | – | 34.4
8 | CCOC(=O)C1CCC/C1=N\N=C(N)N (stereo not given) (tested in a mixture with another compound) | – | > 100 | – | > 100 | – | > 100 | – | > 100 | – | > 100 | – | > 100 | – | > 100 | – | > 100 | – | > 100 | – | > 100
9 | Cc1ccc(NC(=O)c2ccnc(C(F)(F)F)c2)cc1-c1cc(OCCO)nc(N2CCOCC2)c1 | 4.09 | 61.2 | 0.464 | 10 | 4.08 | 23.7 | 1.09 | 28.3 | 3.33 | > 100 | 3.24 | > 100 | 2.81 | 13.5 | 3.31 | > 100 | 3.95 | 21.5 | 3.31 | 28.6
10 | Cc1sc2ncnc(Sc3nc4ccccc4[nH]3)c2c1C | 20.8 | 72.4 | 50.4 | > 100 | 20.6 | 62.1 | 39.7 | > 100 | 21.1 | > 100 | 23.9 | > 100 | 27.6 | > 100 | 18.1 | 62.9 | 20.6 | 66.9 | 32.5 | > 100
11 | Clc1nc(Cl)c2ncn(C/C=C\Cn3cnc4c(Cl)nc(Cl)nc43)c2n1 | 1.54 | 2.89 | 1.67 | 3.45 | 2.24 | 5.71 | 5.52 | 18.4 | 0.739 | 2.36 | 2.05 | 4.54 | 3.24 | 11.2 | 0.951 | 2.79 | 1.79 | 3.26 | 3.01 | 9.71

Reference: PubChem BioAssay (NCI)
